Laboratory results: ChEMBL document CHEMBL3352455, “Small molecule disruptors of the glucokinase-glucokinase regulatory protein interaction: 4. Exploration of a novel binding pocket” (J Med Chem, 2014)

Key:
Hexokinase-4 = target: T1, Hexokinase-4 (Homo sapiens, UniProt P35557); test: Inhibition of fluorescein-labeled human GK interaction with biotin-labeled human GKRP compound incubated for 20 mins prior to addition of fluorescein-labeled GK measured after 2 to 4 hrs by AlphaScreen assay
T1 sequence (P35557 whole entry): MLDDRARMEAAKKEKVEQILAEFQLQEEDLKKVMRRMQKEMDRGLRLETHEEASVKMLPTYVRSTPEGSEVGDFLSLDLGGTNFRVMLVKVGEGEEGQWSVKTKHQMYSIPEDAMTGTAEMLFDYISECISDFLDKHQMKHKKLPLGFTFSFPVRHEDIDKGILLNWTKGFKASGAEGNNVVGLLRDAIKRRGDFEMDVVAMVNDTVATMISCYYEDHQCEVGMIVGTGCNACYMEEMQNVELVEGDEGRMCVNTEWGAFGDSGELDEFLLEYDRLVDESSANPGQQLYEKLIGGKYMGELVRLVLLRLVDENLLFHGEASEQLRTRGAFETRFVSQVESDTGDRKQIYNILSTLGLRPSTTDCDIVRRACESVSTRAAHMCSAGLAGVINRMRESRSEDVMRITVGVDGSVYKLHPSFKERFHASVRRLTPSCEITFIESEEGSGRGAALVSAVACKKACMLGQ

[1] = Intrinsic clearance in human liver microsomes at 1 uM after 30 mins in presence of NADPH; assay type: ADME; details: read-out: CLH
[2] = Intrinsic clearance in rat liver microsomes at 1 uM after 30 mins in presence of NADPH; assay type: ADME; details: read-out: CLH

Row | IC50 (Hexokinase-4) | microsomal CLint at 1 µM [1] | microsomal CLint at 1 µM [2] | SMILES
1 | 11 nM | < 14 µL/min/mg | 40 µL/min/mg | Nc1ccc(S(=O)(=O)N2CCN(c3ncc(C(O)(C(F)(F)F)C(F)(F)F)cc3-c3ccc(F)cc3)CC2)cn1
2 | 176 nM | < 14 µL/min/mg | < 14 µL/min/mg | Nc1ccc(S(=O)(=O)N2CCN(c3ccc(C(O)(C(F)(F)F)C(F)(F)F)cn3)CC2)cn1
3 | 201 nM | < 14 µL/min/mg | 26 µL/min/mg | Nc1ccc(S(=O)(=O)N2CCN(c3ncc(C(O)(C(F)(F)F)C(F)(F)F)cc3Cl)CC2)cn1
4 | 112 nM | < 14 µL/min/mg | 32 µL/min/mg | Nc1ccc(S(=O)(=O)N2CCN(c3ncc(C(O)(C(F)(F)F)C(F)(F)F)cc3Br)CC2)cn1
5 | 1110 nM | < 14 µL/min/mg | < 14 µL/min/mg | COc1cc(C(O)(C(F)(F)F)C(F)(F)F)cnc1N1CCN(S(=O)(=O)c2ccc(N)nc2)CC1
6 | 601 nM | 38 µL/min/mg | 27 µL/min/mg | Nc1ccc(S(=O)(=O)N2CCN(c3ncc(C(O)(C(F)(F)F)C(F)(F)F)cc3C3CC3)CC2)cn1
7 | 33 nM | < 14 µL/min/mg | 67 µL/min/mg | Nc1ccc(S(=O)(=O)N2CCN(c3ncc(C(O)(C(F)(F)F)C(F)(F)F)cc3C#CC3CC3)CC2)cn1
8 | 14 nM | < 14 µL/min/mg | 65 µL/min/mg | Nc1ccc(S(=O)(=O)N2CCN(c3ncc(C(O)(C(F)(F)F)C(F)(F)F)cc3C#CCO)CC2)cn1
9 | 5 nM | 15 µL/min/mg | 399 µL/min/mg | COCC#Cc1cc(C(O)(C(F)(F)F)C(F)(F)F)cnc1N1CCN(S(=O)(=O)c2ccc(N)nc2)CC1
10 | 49 nM | < 14 µL/min/mg | 16 µL/min/mg | CC(C)(O)C#Cc1cc(C(O)(C(F)(F)F)C(F)(F)F)cnc1N1CCN(S(=O)(=O)c2ccc(N)nc2)CC1
11 | 17 nM | < 14 µL/min/mg | 68 µL/min/mg | Nc1ccc(S(=O)(=O)N2CCN(c3ncc(C(O)(C(F)(F)F)C(F)(F)F)cc3C#CCCO)CC2)cn1
12 | 201 nM | < 14 µL/min/mg | 20 µL/min/mg | Nc1ccc(S(=O)(=O)N2CCN(c3ncc(C(O)(C(F)(F)F)C(F)(F)F)cc3-c3cc[nH]n3)CC2)cn1
13 | 5 nM | 20 µL/min/mg | 194 µL/min/mg | CCn1cc(-c2cc(C(O)(C(F)(F)F)C(F)(F)F)cnc2N2CCN(S(=O)(=O)c3ccc(N)nc3)CC2)cn1
14 | 23 nM | 38 µL/min/mg | 198 µL/min/mg | CC(C)n1cc(-c2cc(C(O)(C(F)(F)F)C(F)(F)F)cnc2N2CCN(S(=O)(=O)c3ccc(N)nc3)CC2)cn1
15 | 87 nM | 86 µL/min/mg | 459 µL/min/mg | CC(C)(C)n1cc(-c2cc(C(O)(C(F)(F)F)C(F)(F)F)cnc2N2CCN(S(=O)(=O)c3ccc(N)nc3)CC2)cn1
16 | 40 nM | 28 µL/min/mg | 88 µL/min/mg | Cc1c(-c2cc(C(O)(C(F)(F)F)C(F)(F)F)cnc2N2CCN(S(=O)(=O)c3ccc(N)nc3)CC2)cnn1C
17 | 30000 nM | 50 µL/min/mg | 121 µL/min/mg | Cn1cc(-c2cc(C(O)(C(F)(F)F)C(F)(F)F)cnc2N2CCN(S(=O)(=O)c3ccc(N)nc3)CC2)c(C(F)(F)F)n1
18 | 19 nM | < 14 µL/min/mg | 57 µL/min/mg | Nc1ccc(S(=O)(=O)N2CCN(c3ncc(C(O)(C(F)(F)F)C(F)(F)F)cc3-c3ccoc3)CC2)cn1
19 | 5 nM | 29 µL/min/mg | 399 µL/min/mg | Cc1csc(-c2cc(C(O)(C(F)(F)F)C(F)(F)F)cnc2N2CCN(S(=O)(=O)c3ccc(N)nc3)CC2)c1
20 | 7 nM | < 14 µL/min/mg | 49 µL/min/mg | Nc1ccc(S(=O)(=O)N2CCN(c3ncc(C(O)(C(F)(F)F)C(F)(F)F)cc3-c3ccccc3)CC2)cn1
21 | 7 nM | < 14 µL/min/mg | 47 µL/min/mg | Nc1ccc(S(=O)(=O)N2CCN(c3ncc(C(O)(C(F)(F)F)C(F)(F)F)cc3-c3ccccc3F)CC2)cn1
22 | 8 nM | 25 µL/min/mg | 52 µL/min/mg | Nc1ccc(S(=O)(=O)N2CCN(c3ncc(C(O)(C(F)(F)F)C(F)(F)F)cc3-c3cccc(F)c3)CC2)cn1

Row | IC50 (Hexokinase-4) | microsomal CLint at 1 µM [1] | microsomal CLint at 1 µM [2] | SMILES
23 | 6 nM | 22 µL/min/mg | 125 µL/min/mg | Nc1ccc(S(=O)(=O)N2CCN(c3ncc(C(O)(C(F)(F)F)C(F)(F)F)cc3-c3ccccc3O)CC2)cn1
24 | 309 nM | 40 µL/min/mg | 81 µL/min/mg | CS(=O)(=O)Nc1cccc(-c2cc(C(O)(C(F)(F)F)C(F)(F)F)cnc2N2CCN(S(=O)(=O)c3ccc(N)nc3)CC2)c1
25 | 50 nM | 17 µL/min/mg | 63 µL/min/mg | NC(=O)c1cccc(-c2cc(C(O)(C(F)(F)F)C(F)(F)F)cnc2N2CCN(S(=O)(=O)c3ccc(N)nc3)CC2)c1
26 | 42 nM | 32 µL/min/mg | 103 µL/min/mg | CS(=O)(=O)c1ccc(-c2cc(C(O)(C(F)(F)F)C(F)(F)F)cnc2N2CCN(S(=O)(=O)c3ccc(N)nc3)CC2)cc1
27 | 21 nM | 15 µL/min/mg | 31 µL/min/mg | Nc1ccc(S(=O)(=O)N2CCN(c3ncc(C(O)(C(F)(F)F)C(F)(F)F)cc3-c3ccncc3)CC2)cn1
28 | 24 nM | 17 µL/min/mg | 22 µL/min/mg | Nc1ccc(S(=O)(=O)N2CCN(c3ncc(C(O)(C(F)(F)F)C(F)(F)F)cc3-c3cnccc3F)CC2)cn1
29 | 11 nM | 24 µL/min/mg | 19 µL/min/mg | Nc1ccc(S(=O)(=O)N2CCN(c3ncc(C(O)(C(F)(F)F)C(F)(F)F)cc3-c3cncc(F)c3)CC2)cn1
30 | 29 nM | 37 µL/min/mg | 259 µL/min/mg | Cc1cncc(-c2cc(C(O)(C(F)(F)F)C(F)(F)F)cnc2N2CCN(S(=O)(=O)c3ccc(N)nc3)CC2)c1
31 | 40 nM | 43 µL/min/mg | 182 µL/min/mg | Cc1ccc(-c2cc(C(O)(C(F)(F)F)C(F)(F)F)cnc2N2CCN(S(=O)(=O)c3ccc(N)nc3)CC2)cn1
32 | 16 nM | 25 µL/min/mg | 265 µL/min/mg | COc1ccc(-c2cc(C(O)(C(F)(F)F)C(F)(F)F)cnc2N2CCN(S(=O)(=O)c3ccc(N)nc3)CC2)cn1
33 | 17 nM | 44 µL/min/mg | 58 µL/min/mg | COc1cncc(-c2cc(C(O)(C(F)(F)F)C(F)(F)F)cnc2N2CCN(S(=O)(=O)c3ccc(N)nc3)CC2)c1
34 | 47 nM | 48 µL/min/mg | 487 µL/min/mg | Nc1ccc(S(=O)(=O)N2CCN(c3ncc(C(O)(C(F)(F)F)C(F)(F)F)cc3-c3ccc4sccc4c3)CC2)cn1
35 | 35 nM | 39 µL/min/mg | 147 µL/min/mg | Nc1ccc(S(=O)(=O)N2CCN(c3ncc(C(O)(C(F)(F)F)C(F)(F)F)cc3-c3ccc4scnc4c3)CC2)cn1
36 | 20 nM | < 14 µL/min/mg | 120 µL/min/mg | Nc1ccc(S(=O)(=O)N2CCN(c3ncc(C(O)(C(F)(F)F)C(F)(F)F)cc3-c3ccc4ocnc4c3)CC2)cn1
37 | 15 nM | < 14 µL/min/mg | 99 µL/min/mg | Cc1nc2cc(-c3cc(C(O)(C(F)(F)F)C(F)(F)F)cnc3N3CCN(S(=O)(=O)c4ccc(N)nc4)CC3)ccc2o1
38 | 20 nM | 15 µL/min/mg | 221 µL/min/mg | CN1C(=O)Cc2cc(-c3cc(C(O)(C(F)(F)F)C(F)(F)F)cnc3N3CCN(S(=O)(=O)c4ccc(N)nc4)CC3)ccc21
39 | 33 nM | < 14 µL/min/mg | 119 µL/min/mg | Nc1ccc(S(=O)(=O)N2CCN(c3ncc(C(O)(C(F)(F)F)C(F)(F)F)cc3-c3ccc4c(c3)CC(=O)N4)CC2)cn1
40 | 60 nM | 27 µL/min/mg | 88 µL/min/mg | Nc1ccc(S(=O)(=O)N2CCN(c3ncc(C(O)(C(F)(F)F)C(F)(F)F)cc3-c3ccc4[nH]ncc4c3)CC2)cn1
41 | 1950 nM | 42 µL/min/mg | 93 µL/min/mg | Nc1ccc(S(=O)(=O)N2CCN(c3ncc(C(O)(C(F)(F)F)C(F)(F)F)cc3-c3cccc4[nH]ncc34)CC2)cn1
42 | 27 nM | < 14 µL/min/mg | 146 µL/min/mg | Nc1ccc(S(=O)(=O)N2CCN(c3ncc(C(O)(C(F)(F)F)C(F)(F)F)cc3-c3cc4ccccc4[nH]3)CC2)cn1
43 | 48 nM | < 14 µL/min/mg | 315 µL/min/mg | Nc1ccc(S(=O)(=O)N2CCN(c3ncc(C(O)(C(F)(F)F)C(F)(F)F)cc3-c3cc4ccccc4s3)CC2)cn1
